Measured values reported in US12577247B2 (BUGWORKS RESEARCH, INC., priority 2021, dated 2026).

Legend:
A2A receptor [1] = target: T1, A2A receptor (Homo sapiens, UniProt P29274); test: A2aR antagonism IC50, cAMP TR-FRET (Lance Ultra) in HEK-293 cells, NECA as agonist; type: cell-based; details: A2AR IC50 (nM) (@5 nM NECA), HEK-293 cells expressing A2A receptor; agonist NECA 5 nM (EC90); inhibition of cAMP;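 also: compounds tested from 10 µM down to 0.08 nM in buffer with Rolipram at room temperature, TR-FRET cAMP signal read 1 h after adding Eu-cAMP tracer and ULight anti-cAMP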
T1 construct: host or cells: HEK-293
T1 sequence (P29274 whole entry): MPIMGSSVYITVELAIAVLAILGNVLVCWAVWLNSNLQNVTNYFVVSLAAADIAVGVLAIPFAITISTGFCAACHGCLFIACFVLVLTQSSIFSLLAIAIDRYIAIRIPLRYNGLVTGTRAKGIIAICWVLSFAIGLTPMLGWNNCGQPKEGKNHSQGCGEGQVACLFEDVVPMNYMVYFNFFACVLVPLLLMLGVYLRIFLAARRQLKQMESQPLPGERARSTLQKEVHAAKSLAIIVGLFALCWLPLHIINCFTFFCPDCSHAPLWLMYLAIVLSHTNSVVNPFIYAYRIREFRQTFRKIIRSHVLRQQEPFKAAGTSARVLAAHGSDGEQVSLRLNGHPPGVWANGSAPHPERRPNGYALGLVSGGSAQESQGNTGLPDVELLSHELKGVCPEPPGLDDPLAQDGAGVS
Source text: (§7) Adenosine A2A receptors and Adenosine A2B receptors induce the production of cAMP when activated/stimulated by an agonist like adenosine or 5′-(N-Ethylcarboxamido) adenosine (NECA). A Time-Resolved Fluorescence Energy Transfer (TR-FRET) assay was used to show the inhibition of this cAMP production in HEK cells upon treatment with compounds of the Formula I of the present disclosure.
(§8) HEK-293 cells expressing A2A receptor (#ES-011-C) or A2B receptor (#ES 013-C) were obtained from PerkinElmer. Cells were maintained in DMEM medium supplemented with 10% FBS and 200 μg/mL of G418 at 37° C. and 5% CO2. The cells were cultured in antibiotic free medium for a period of 16-20 hours prior to the assay. All subsequent steps of the assay are performed at room temperature (22-24° C.). The cells were harvested at about 80% confluency by gentle flushing with PBS, recovered by centrifugation and resuspended in stimulation buffer at the concentration of 5.0×10^6 cells/mL.
(§9) The assays were conducted in a stimulation buffer containing 1×DMEM, 5 mM HEPES, 0.1% BSA stabilizer and 20-30 μM Rolipram. Serial dilutions of compounds were made in stimulation buffer to achieve a final concentration of high micromolar (10 μM to 0.08 nM) in the reaction volume of 10 μL. The total reaction volume was 10 μL (5 μL of cells, 2.5 μL of antagonist and 2.5 μL of agonist). The stimulation was ended, and the reaction completed by adding 5 μL of 4× Eu-cAMP tracer working solution and 5 μL of 4× ULight-anti-cAMP working solution. The TR-FRET signal was measured after 1-hour incubation using a Tecan M1000 reader.

A2A receptor [2] = target: T1, A2A receptor; test: A2aR antagonism IC50, cAMP TR-FRET in HEK-293 cells, high concentration of adenosine (30 μM); type: cell-based; details: HEK-293 cells expressing A2A receptor; agonist adenosine 30 μM; 2% HSA; inhibition of cAMP; read-out: A2AR IC50 (nM) (@30 μM Adenosine);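 also: compounds added 10 min before adenosine, then 30 min stimulation at room temperature in buffer with 100 µM rolipram and 30 µM EHNA, signal read 1 h after detection reagents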
Procedure: (§10) A Time-Resolved Fluorescence Energy Transfer (TR-FRET) assay was used to show the inhibition of this cAMP production in HEK cells upon treatment with compounds of the Formula I of the present disclosure.
(§11) HEK-293 cells expressing A2A receptor (#ES-011-C) or A2B receptor (#ES 013-C) were obtained from PerkinElmer. Cells were maintained in DMEM medium supplemented with 10% FBS and 200 μg/mL of G418 at 37° C. and 5% CO2. The cells were cultured in antibiotic free medium for a period of 16-20 hours prior to the assay. All subsequent steps of the assay are performed at room temperature (22-24° C.). […] About 1500 cells per well were pre-incubated for 10 minutes with the compounds of the present invention before adding the agonist Adenosine at a high concentration (30 μM) for a total stimulation time of 30 minutes. […] The assays were conducted in a stimulation buffer containing 1×DMEM, 5 mM HEPES, 2% Human serum albumin (HSA), 100 μM Rolipram and 30 μM erythro-9-(2-hydroxy-3-nonyl) adenine (EHNA). Serial dilutions of compounds were made in stimulation buffer to achieve a final concentration of high micromolar in a reaction volume of 10 μL. The total reaction volume was 10 μL (5 μL of cells, 2.5 μL of antagonist and 2.5 μL of agonist). […] The stimulation was ended, and the reaction completed by adding 5 μL of 4× Eu-cAMP tracer working solution and 5 μL of 4× ULight-anti-cAMP working solution. The TR FRET signal was measured after 1-hour incubation using a Tecan M1000 or a PerkinElmer Victor Nivo plate reader.

[3] = Plasma protein binding, equilibrium dialysis, mouse; type: in vitro ADME; details: plasma (10% plasma, extrapolated to 100% plasma), CD-1 plasma, 18 hours at 37° C.
Procedure: (§1) Protein binding is measured using the equilibrium dialysis technique. Compound is added to 10% plasma giving a concentration of 10 μM and dialysed with isotonic buffer for 18 hours at 37° C. The plasma and buffer solutions are analysed using generic LC UV/MS and the first apparent binding constant for the compound derived. The binding constant is then used to determine the % free in 100% plasma
(§2) The percentage of plasma bound/unbound fraction preparation was calculated as follows
(§3) [formula] [formula] where, • Tc=Total plasma concentration was determined by the calculated concentration on the plasma side of the chamber • Fc=[…] was determined by the calculated concentration on the buffer side of the chamber • To=Total compound concentration determined before analysis.

[4] = Plasma protein binding, equilibrium dialysis, dog; type: in vitro ADME; details: plasma (10% plasma, extrapolated to 100% plasma), Beagle plasma, 18 hours at 37° C.
Procedure: as §1, §2, §3

[5] = Plasma protein binding, equilibrium dialysis, human; type: in vitro ADME; details: plasma (10% plasma, extrapolated to 100% plasma), 18 hours at 37° C.
Procedure: as §1, §2, §3

[6] = Metabolic stability and intrinsic clearance in human hepatocytes (with IVIVE); type: in vitro ADME; details: Human hepatocytes
Procedure: (§4) The metabolic stability was expressed as the percentage of parent remaining is calculated from the peak area ratio of NCE remaining after incubation (tx) compared to the time zero (t0) incubation. The percentage of parent test compound remaining at each time point was calculated by comparing the peak area ratio of test compound after incubation (tx) with peak area of time zero (t0) incubation. Similarly, half-life (t½) was calculated using following equation:
(§5) [formula] The intrinsic clearance (Clint) was calculated using the following equations:
(§6) [formula] Scaling factors to represent […] million cells/gm liver and liver/kg body wt.

Human hepatocytes = test: as above; type: in vitro ADME; details: Human; for Predicted CLh: IVIVE from hepatocyte CLint; for Hepatocyte Clint: Table 6 (IVIVE)
Procedure: as §4, §5, §6

A2B receptor [7] = target: T2, A2B receptor (Homo sapiens, UniProt P29275); test: A2bR antagonism IC50, cAMP TR-FRET (Lance Ultra) in HEK-293 cells, NECA as agonist; type: cell-based; set-up: host or cells: HEK-293; details: HEK-293 cells expressing A2B receptor; agonist NECA 30 nM (EC90); inhibition of cAMP
T2 sequence (P29275 1-332): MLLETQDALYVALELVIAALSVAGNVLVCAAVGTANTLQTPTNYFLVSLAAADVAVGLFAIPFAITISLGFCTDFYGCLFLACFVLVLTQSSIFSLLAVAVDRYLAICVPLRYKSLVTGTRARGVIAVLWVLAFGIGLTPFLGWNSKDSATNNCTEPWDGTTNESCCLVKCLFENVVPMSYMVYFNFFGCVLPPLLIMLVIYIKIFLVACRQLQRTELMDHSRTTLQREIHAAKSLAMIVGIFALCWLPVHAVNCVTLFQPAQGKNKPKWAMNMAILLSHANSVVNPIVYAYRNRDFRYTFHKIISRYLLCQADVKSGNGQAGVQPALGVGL
Source text: as §7, §8, §9

A2B receptor [8] = target: T2, A2B receptor; test: A2bR antagonism IC50, cAMP TR-FRET in HEK-293 cells, high concentration of adenosine (30 μM); details: A2BR IC50 (nM) (@30 μM Adenosine), HEK-293 cells expressing A2B receptor; agonist adenosine 30 μM; 2% HSA; inhibition of cAMP;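 also: compounds preincubated 10 min with cells, then adenosine stimulation 30 min at room temperature in buffer with Rolipram 100 µM and EHNA 30 µM, TR-FRET read after 1 h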
Procedure: as §10, §11

IC50 (A2A receptor [1]) [nM]	IC50 (A2A receptor [2]) [nM]	fraction unbound at 18 h, 10 µM [3]	fraction unbound at 18 h, 10 µM [4]	fraction unbound at 18 h, 10 µM [5]	Hepatocyte Clint [6] [µL/min/1e6 cells]	Predicted CLh (Human hepatocytes) [mL/min/kg]	Hepatocyte Clint (Human hepatocytes) [μl/min/10^6]	IC50 (A2B receptor [7]) [nM]	IC50 (A2B receptor [8]) [nM]	SMILES
0.23	120	0.125	0.156	0.0913	< 8.2	12	<8.2	0.94	1830	CCc1c(C)nn2c(N)c(C#N)c(NCCc3ccn(C4(CO)CC4)n3)nc12 [Example 39, 7-amino-3-ethyl-5-((2-(1-(1-(hydroxymethyl)cyclopropyl)-1H-pyrazol-3-yl)ethyl)amino)-2-methylpyrazolo[1,5-a] pyrimidine-6-carbonitrile]
0.25	300	0.0933	0.09	0.05	< 8.2	12	<8.2	3.4	2320	Cc1cccc(CCNc2nc3c(C)c(C)nn3c(N)c2C#N)n1 [Example 13, 7-amino-5-((2-(6-methylpyridin-2-yl)ethyl)amino)-2,3-dimethylpyrazolo[1,5-a]pyrimidine-6-carbonitrile]
–	130	–	0.15	0.117	< 4.1	8.6	<4.1	–	521	CCc1c(C)nn2c(N)c(C#N)c(NCCc3ccn(C4COCC4CO)n3)nc12 (single isomer, unassigned; (-)) [Example 122b, (−)-7-amino-3-ethyl-5-((2-(1-(4-(hydroxymethyl)tetrahydrofuran-3-yl)-1H-pyrazol-3-yl)ethyl)amino)-2-methyl pyrazolo[1,5-a]pyrimidine-6-carbonitrile]
